Where two headings read alike, the source gives them in different places.
Experiments:
[1] = molecular target: T1, PPARγ (Homo sapiens, UniProt P37231); assay: Transactivation dual luciferase assay in COS-7 cells with GAL4-PPARγ chimera; format: cell-based; settings: for EC50: PPARγ transcriptional activity; for Transcriptional activity (in words): compared with rosiglitazone
T1 sequence (P37231 232-505 limits assumed): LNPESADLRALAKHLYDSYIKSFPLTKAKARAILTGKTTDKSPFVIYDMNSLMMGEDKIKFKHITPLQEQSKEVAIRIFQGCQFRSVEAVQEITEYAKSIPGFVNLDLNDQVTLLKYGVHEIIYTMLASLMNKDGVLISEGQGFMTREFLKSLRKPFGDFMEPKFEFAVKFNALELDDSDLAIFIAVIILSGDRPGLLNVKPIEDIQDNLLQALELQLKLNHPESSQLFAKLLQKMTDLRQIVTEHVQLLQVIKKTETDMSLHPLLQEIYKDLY
Description: Transactivation in COS-7 cells was measured using a dual luciferase assay according to a previously reported procedure. EC50s were calculated by GraphPad Prism 6 (GraphPad Software, San Diego, USA) (<A>LogEC = LogEC50Control <~A>LogEC = LogEC50Control + log(EC50Ratio) Y = Bottom + (Top-Bottom)/(1 + 10^((LogEC-X) × HillSlope))).
The data represent the mean ± SD of three independent experiments.
Biological experiments section
COS-7 cells (RIKEN BRC) was cultured in Dulbecco’s Modified Eagle’s medium (DMEM) (Sigma-
Aldrich) supplemented with 5% heat inactivated fetal bovine serum (FBS) (HyClone) and 1%
penicillin-streptomycin (containing 10000 U/mL penicillin and 10000 µg/mL streptomycin; Nacalai

[2] = UV-visible absorption and fluorescence spectroscopic analyses in solvents; format: physicochemical; settings: for Q.Y.: reference quinine sulfate in 0.1 M H2SO4; for Q.Y. (Φ), range over solvents: in CH2Cl2, THF, MeOH, or H2O
Description: We evaluated the fluorescence properties of PPARγ ligands 2 and 6 (Figure 4) by measuring the fluorescence spectra and quantum yields (Q.Y.) in CH2Cl2, THF, MeOH, or H2O. […] The dielectric constant of each solvent was THF: 7.4, CH2Cl2: 8.9, MeOH: 32.6, and H2O: 78.5 [41, 42].
Stock solutions of model coumarin compounds PPAR ligands 1, 2, and 6 were prepared in DMSO, and stored in the dark at −20 °C. The stock solutions were diluted (2 μM) with solvents (CH2Cl2, THF, MeOH, and H2O) and then the UV-visible absorption and fluorescence signals were measured by a spectrometer. The fluorescence quantum yields of coumarin analogues were calculated using quinine sulfate (Φ = 0.577 in 0.1 M H2SO4) as a reference standard.

[3] = molecular target: T2, hPPARγ-LBD (Homo sapiens, UniProt P37231); assay: Kd determination by fluorescence intensity at 410 nm on adding hPPARγ-LBD; format: binding; settings: probe 1 μM, Ex 367 nm, Tris–HCl buffer
T2 construct: The human PPARγ-LBD (residues 204−477) was expressed; 6×His (TEV-cleavable) (N, cleaved yes); made in house; host or cells: E. coli Rosetta (DE3)
T2 sequence (P37231 204-477 isoform P37231-2): T1 sequence (P37231 232-505 limits assumed)
Description: We examined whether 2 and 6 were useful for PPARγ binding assays. […] The fluorescence spectra were measured by adding hPPARγ-LBD (0.05 to 8.0 μM) in Tris–HCl buffer to 2 (1 μM) (Figure 7a). The fluorescence maxima shifted to shorter wavelength and the fluorescence intensity increased upon increasing the concentration of PPARγ-LBD.
The assay buffer was measured as the background for fluorescence spectrum. […] The specific equilibrium binding constant (Kd) was derived using GraphPad Prism6 (Y = Bmax × X^h/(Kd^h + X^h) (X: concentration of PPARγ-LBD [nM], Y: fluorescence intensity at 410 nm, h: Hill slope).
Figure 7 (a) Fluorescence spectra of 2 (1 µM) upon addition to hPPARγ-LBD (0.05–8.0 µM) in Tris–HCl buffer with Ex = 367 nm. (b) Fluorescence intensity of 2 at 410 nm depending on the concentration of hPPARγ-LBD. Data are mean ± SD (n = 3).

[4] = system: PPARγ; set-up: method as in PMID 17335769; settings: read-out: The reported IC50 value; cited from earlier work
[5] = system: PPARγ; set-up: method as in PMID 11698662; settings: read-out: The reported EC50 value; cited from earlier work
[6] = system: PPARγ; set-up: method as in PMID 19053776; settings: read-out: The reported EC50 value; cited from earlier work

EC50 [1] [nM] | Transcriptional activity (in words) [1] | Absmax ([2]; In CH2Cl2, 2 μM) [nm] | Emmax ([2]; In CH2Cl2, 2 μM) [nm] | Δ ([2]; In CH2Cl2, 2 μM) [nm] | Q.Y. ([2]; In CH2Cl2) | Absmax ([2]; In H2O, 2 μM) [nm] | Emmax ([2]; In H2O, 2 μM) [nm] | Δ ([2]; In H2O, 2 μM) [nm] | Q.Y. ([2]; In H2O) | Absmax ([2]; In MeOH, 2 μM) [nm] | Emmax ([2]; In MeOH, 2 μM) [nm] | Δ ([2]; In MeOH, 2 μM) [nm] | Q.Y. ([2]; In MeOH) | Absmax ([2]; In THF, 2 μM) [nm] | Emmax ([2]; In THF, 2 μM) [nm] | Δ ([2]; In THF, 2 μM) [nm] | Q.Y. ([2]; In THF) | Kd [3] [nM] | Q.Y. (Φ), range over solvents [2] | Compound | other results
180 | comparable to rosiglitazone | 316 | 469 | 153 | 0.00359 | 312 | 451 | 139 | 0.00369 | 314 | 392 | 78 | 0.0039 | 314 | 467 | 153 | 0.00461 | – | – | COc1ccc2c(N(C)CCOc3ccc(CC4SC(=O)NC4=O)cc3)cc(=O)oc2c1 (stereo not drawn) [Compound 1] | –
34 | comparable to rosiglitazone | 359 | 423 | 64 | 0.541 | 364 | 462 | 98 | 0.143 | 359 | 449 | 90 | 0.532 | 354 | 416 | 62 | 0.191 | 1560 ± 93.6 | 0.143–0.541 | CCN(CC)c1ccc2c(N(C)CCOc3ccc(CC4SC(=O)NC4=O)cc3)cc(=O)oc2c1 (stereo not drawn) [Compound 2, 5-(4-(2-((7-(diethylamino)-2-oxo-2H-chromen-4-yl) (methyl)amino)ethoxy)benzyl)thiazolidine-2,4-dione] | –
350 | partial agonistic activity | 359 | 423 | 64 | 0.764 | 369 | 461 | 92 | 0.0865 | 358 | 449 | 91 | 0.432 | 353 | 416 | 63 | 0.172 | 4080 ± 712 | 0.0865–0.764 | CCN1C(=O)SC(Cc2ccc(OCCN(C)c3cc(=O)oc4cc(N(CC)CC)ccc34)cc2)C1=O (stereo not drawn) [Compound 6, 5-(4-(2-((7-(diethylamino)-2-oxo-2H-chromen-4-yl)(methyl)amino)ethoxy)benzyl)-3-ethylthiazolidine-2,4-dione] | –
– | – | – | – | – | – | – | – | – | – | – | – | – | – | – | – | – | – | – | – | CN(CCOc1ccc(CC2SC(=O)NC2=O)cc1)c1ccccn1 (stereo not drawn) [Rosiglitazone] | IC50 [4]: […]; EC50 [5]: 18 ± 4 nM; EC50 [6]: […]
